Reference: US7705043B2, “Substituted aminodicarboxylic acid derivatives having pharmaceutical properties” (Bayer Schering Pharma Aktiengesellschaft, priority 2001, dated 2010)

Columns and labels:
arteria saphena rings = assay: Vasorelaxant effect in vitro (phenylephrine-contracted rings of rabbit arteria saphena); type: cell-based; conditions: Oryctolagus cuniculus, contraction generated by phenylephrine, concentration reducing height of control contraction by 50%
Description: Vasorelaxant Effect in Vitro
Rabbits are anesthetized or killed by intravenous injection of thiopental sodium (about 50 mg/kg) and exsanguinated. The arteria saphena is removed and divided into rings 3 mm wide. The individual rings are in each case mounted on a pair of hooks of triangular shape, open at the ends and made of special wire (Remanium®) having a diameter of 0.3 mm. Under tension, each ring is introduced into a 5 ml organ bath containing carbogen-gassed Krebs-Henseleit solution at 37° C. with the following composition (mM): NaCl: 119; KCl: 4.8; CaCl2×2H2O: 1; MgSO4×7H2O: 1.4; KH2PO4: 1.2; NaHCO3: 25; glucose: 10; bovine serum albumin: 0.001%. The force of contraction is detected with Statham UC2 cells, amplified and digitized via A/D converters (DAS-1802 HC, Keithley Instruments, Munich) and recorded in parallel on chart recorders. Contractions are generated by adding phenylephrine.
After several (generally 4) control cycles, the substance to be investigated is added in each further run in increasing dosage in each case, and the height of the contraction reached under the influence of the test substance is compared with the height of the contraction reached in the last preceding run. The concentration necessary to reduce the height of the control value by 50% (IC50) is calculated from this. The standard application volume is 5 μl. The DMSO content in the bath solution corresponds to 0.1%.

SMILES | IC50 (arteria saphena rings) [nM] | melting point [°C]
COc1ccc(-c2ccc(OCc3c(C)sc(C)c3CCN(CCCCC(=O)O)Cc3ccc(C(=O)O)cc3)cc2)cc1 [Example 5] | 7 | –
Cc1sc(C)c(COc2ccc(-c3ccc(C(C)(C)C)cc3)cc2)c1CCN(CCCCC(=O)O)Cc1ccc(C(=O)O)cc1 [Example 9] | 61 | –
COc1cccc(-c2ccc(OCc3c(C)sc(C)c3CCN(CCCCC(=O)O)Cc3ccc(C(=O)O)cc3)cc2)c1 [Example 10] | 51 | –
Cc1ccc(OCc2ccc(-c3ccc(C(F)(F)F)cc3)cc2)c(CCN(CCCCC(=O)O)Cc2ccc(C(=O)O)cc2)n1 [Example 16] | 125 | –

The remaining lines, values ahead:

IC50 (arteria saphena rings) [nM] | melting point [°C] | SMILES
2 | – | Cc1sc(C)c(COc2ccc(-c3ccc(Cl)cc3Cl)cc2)c1CCN(CCCCC(=O)O)Cc1ccc(C(=O)O)cc1 [Example 3, 4-({(4-Carboxybutyl)[2-(4-{[(2′,4′-dichloro-1,1′-biphenyl-4-yl)oxy]methyl}-2,5-dimethyl-3-thienyl)ethyl]amino}methyl)benzoic acid]
22 | – | Cc1sc(C)c(COc2ccc(-c3ccc(C(F)(F)F)cc3)cc2)c1CCN(CCCCC(=O)O)Cc1ccc(C(=O)O)cc1 [Example 4]
94 | > 240 | COc1ccc(-c2ccc(COc3cc4c(cc3CCN(CCCCC(=O)O)Cc3ccc(C(=O)O)cc3)CCCC4)cc2)cc1 [Example 13, 4-{[(4-Carboxybutyl)(2-{3-[(4′-methoxy-1,1′-biphenyl-4-yl)methoxy]-5,6,7,8-tetrahydro-2-naphthyl}ethyl)amino]methyl}benzoic acid]
